Assay results published in patent publication US8309726B2, “Substituted piperazine compounds of formula 8” (Council of Scientific & Industrial Research, priority 2007, dated 2012).

Tests used:
calf thymus (CT) DNA = test: Thermal denaturation studies with duplex-form calf thymus DNA; format: binding
Description: Compounds were subjected to thermal denaturation studies with duplex-form calf thymus DNA (CT-DNA) using an adaptation of a reported procedure. Working solutions in aqueous buffer (10 mM NaH2PO4/Na2HPO4, 1 mM Na2EDTA, pH 7.00+/−0.01) containing CT-DNA (100 μM in phosphate) and the PBD (20 μM) were prepared by addition of concentrated ANCD solutions in DMSO to obtain a fixed [ANCD]/[DNA] molar ratio of 1:5. The DNA-ANCD solutions were incubated at 37° C. for 0, 18, and 36 h prior to analysis. Samples were monitored at 260 nm using a Beckman DU-7400 spectrophotometer fitted with high performance temperature controller, and heating was applied at 1° C. min^−1 in the 40-90° C. range. DNA helix coil transition temperatures (Tm) were obtained from the maxima in the (dA260)/dT derivative plots. Results are given as the mean+/−standard deviation from three determinations and are corrected for the effects of DMSO co-solvent using a linear correction term. Drug-induced alterations in DNA melting behaviour are given by: ΔTm=Tm (DNA+ANCD)−Tm (DNA alone), where the Tm value for the ANCD-free CT-DNA is 69.0+/−0.01.

human tumour cell lines = test: In vitro anticancer activity against sixty human tumour cell lines (NCI, SRB assay); format: cell-based
Description: (§1) In vitro evaluation of cytotoxic activity: Compounds were evaluated for in vitro anticancer activity against sixty human tumour cells derived from nine cancer types (colon, prostate, oral, lung, cervix and breast cancer) as shown in (Table 1, 2 and 3) 8b, 8c, 8d, and 8e, were evaluated for in vitro anticancer activity against sixty human tumour cells derived from nine cancer types (leukemia, non-small-cell lung, colon, CNS, melanoma, ovarian, prostate, and breast cancer) as shown in (Table 2 and 3). For the compound, dose response curves for each cell line were measured at a minimum of five concentrations at 10 fold dilutions. A protocol of 48 h continuous drug exposure was used and a sulforhodamine B (SRB) protein assay was used to estimate cell viability or growth. The concentration causing 50% cell growth inhibition (GI50), total cell growth inhibition (TGI 0% growth) and 50% cell death (LC50, −50% growth) compared with the control was calculated. The mean graph midpoint values of log10 TGI and log10 LC50 as well as log10 GI50 for 8a, 8b, 8c, 8d, and 8e, are listed in (Table 2 and 3).
(§2) Each cancer type represents the average of six to nine different cancer cell lines. The compounds 8a, 8b, 8c, 8d, 8e and 8f were evaluated for in vitro anticancer activity against sixty human tumour cells derived from nine cancer types (leukemia, colon, prostate, renal melanoma CNS, lung, cervix and breast cancer) as shown in Table 3. Compounds 8b, 8c, 8d and 8e show promising cytotoxicity against some cancer cell lines (Table 2). Compounds 8b, 8c, 8d and 8e have been evaluated for their in vitro cytotoxicity in selected human cancer cell lines of colon (Colo205), lung (Hop-62), cervix (SiHa), prostate (DU145, PC3), oral (DWD, HT1080), and breast (MCF7, Zr-75-1) origin. A protocol of 48 h continuous drug exposure has been used and an […] has been used to estimate cell viability or growth. The results are expressed as percent of cell growth determined relative to that of untreated control cells. […] In the breast cancer panel, the growth of BT-549, MCF-7 cell lines are 10.3, and 17.6. In the prostate cancer panel, the growth of DU-145, PC-3 cell lines are 11.3, and 19.2. The GI50 values of compound In the CNS cancer panel, the growth of SF-539, SNB-75 cell lines are […]. […] In vitro cytotoxicity of compounds 8a, and 8b in selected cancer cell lines has been illustrated in Table 3. The average GI50 values for each cancer panel of compounds 8b, 8c, 8d and 8e have been illustrated in above Table 2 and 3

[1] = system: Leukemia cancer cell lines; test: In vitro cytotoxicity, leukemia panel; format: cell-based; details: Homo sapiens, average of six to nine different cancer cell lines, 48 h, SRB, read-out: Log GI50 (concentration in mol/L causing 50% growth inhibition) (converted)
Description: as §1, §2

[2] = system: Nonsmall-cell-lung cancer cell lines; test: In vitro cytotoxicity, non-small-cell lung panel; format: cell-based; details: Homo sapiens, average of six to nine different cancer cell lines, 48 h, SRB, read-out: Log GI50 (concentration in mol/L causing 50% growth inhibition) (converted)
Description: as §1, §2

Colon cancer cell lines = test: In vitro cytotoxicity, colon panel; format: cell-based; details: Homo sapiens, average of six to nine different cancer cell lines, 48 h, SRB, read-out: Log GI50 (concentration in mol/L causing 50% growth inhibition) (converted)
Description: as §1, §2

CNS cancer cell lines = test: In vitro cytotoxicity, CNS panel; format: cell-based; details: Homo sapiens, average of six to nine different cancer cell lines, 48 h, SRB, read-out: Log GI50 (concentration in mol/L causing 50% growth inhibition) (converted)
Description: as §1, §2

[3] = system: Melanoma cancer cell lines; test: In vitro cytotoxicity, melanoma panel; format: cell-based; details: Homo sapiens, average of six to nine different cancer cell lines, 48 h, SRB, read-out: Log GI50 (concentration in mol/L causing 50% growth inhibition) (converted)
Description: as §1, §2

[4] = system: Ovarian cancer cell lines; test: In vitro cytotoxicity, ovarian panel; format: cell-based; details: Homo sapiens, average of six to nine different cancer cell lines, 48 h, SRB, read-out: Log GI50 (concentration in mol/L causing 50% growth inhibition) (converted)
Description: as §1, §2

Renal cancer cell lines = test: In vitro cytotoxicity, renal panel; format: cell-based; details: Homo sapiens, average of six to nine different cancer cell lines, 48 h, SRB, read-out: Log GI50 (concentration in mol/L causing 50% growth inhibition) (converted)
Description: as §1, §2

[5] = system: Prostate cancer cell lines; test: In vitro cytotoxicity, prostate panel; format: cell-based; details: Homo sapiens, average of six to nine different cancer cell lines, 48 h, SRB, read-out: Log GI50 (concentration in mol/L causing 50% growth inhibition) (converted)
Description: as §1, §2

Breast cancer cell lines = test: In vitro cytotoxicity, breast panel; format: cell-based; details: Homo sapiens, average of six to nine different cancer cell lines, 48 h, SRB, read-out: Log GI50 (concentration in mol/L causing 50% growth inhibition) (converted)
Description: as §1, §2

[6] = system: EKVX cell line (non-small cell lung cancer); test: In vitro cytotoxicity, EKVX; format: cell-based; details: Homo sapiens, non-small cell lung cancer panel
Description: (§3) In vitro evaluation of cytotoxic activity: Compounds were evaluated for in vitro anticancer activity against sixty human tumour cells derived from nine cancer types (colon, prostate, oral, lung, cervix and breast cancer) as shown in (Table 1, 2 and 3) 8b, 8c, 8d, and 8e, were evaluated for in vitro anticancer activity against sixty human tumour cells derived from nine cancer types (leukemia, non-small-cell lung, colon, CNS, melanoma, ovarian, prostate, and breast cancer) as shown in (Table 2 and 3). For the compound, dose response curves for each cell line were measured at a minimum of five concentrations at 10 fold dilutions. […]
(§4) Each cancer type represents the average of six to nine different cancer cell lines. The compounds 8a, 8b, 8c, 8d, 8e and 8f were evaluated for in vitro anticancer activity against sixty human tumour cells derived from nine cancer types (leukemia, colon, prostate, renal melanoma CNS, lung, cervix and breast cancer) as shown in Table 3. […] Compounds 8b, 8c, 8d and 8e have been evaluated for their in vitro cytotoxicity in selected human cancer cell lines of colon (Colo205), lung (Hop-62), cervix (SiHa), prostate (DU145, PC3), oral (DWD, HT1080), and breast (MCF7, Zr-75-1) origin. […] The results are expressed as percent of cell growth determined relative to that of untreated control cells. […]

[7] = system: NCI-H226 cell line (non-small cell lung cancer); test: In vitro cytotoxicity, NCI-H226; format: cell-based; details: Homo sapiens; NCI-H226, non-small cell lung cancer panel
Description: as §3, §4

HL-60 (TB) (leukemia) = test: In vitro cytotoxicity, HL-60 (TB); format: cell-based; details: Homo sapiens, leukemia panel
Description: as §3, §4

[8] = system: BT-549 cell line (breast cancer); test: In vitro cytotoxicity, BT-549; format: cell-based; details: Homo sapiens; BT-549, breast cancer panel; unit inferred; read-out: growth (GI50)
Description: as §3, §4

[9] = system: MCF-7 cell line (breast cancer); test: In vitro cytotoxicity, MCF-7; format: cell-based; details: Homo sapiens, MCF7; MCF-7, breast cancer panel; unit inferred; read-out: growth (GI50)
Description: as §3, §4

[10] = system: DU-145 cell line (prostate cancer); test: In vitro cytotoxicity, DU-145; format: cell-based; details: Homo sapiens; DU-145, prostate cancer panel; unit inferred; read-out: growth (GI50)
Description: as §3, §4

[11] = system: PC-3 cell line (prostate cancer); test: In vitro cytotoxicity, PC-3; format: cell-based; details: Homo sapiens; PC-3, prostate cancer panel; unit inferred; read-out: growth (GI50)
Description: as §3, §4

COc1cc(C(=O)N2CCN(c3ccccn3)CC2)c(N)cc1OCc1ccccc1 [Compound 8b, [2-amino-4-(benzyloxy)-5-methoxyphenyl][4-(2-pyridyl)piperazino]methanone]
ΔTm (° C.) after incubation at 37° C. for 0 h (calf thymus (CT) DNA; [ANCD]/[DNA] molar ratio 1:5, CT-DNA 100 μM, ligand 20 μM, sodium phosphate buffer pH 7.00, 0 h at 37° C.): 1.5 °C | ΔTm (° C.) after incubation at 37° C. for 18 h (calf thymus (CT) DNA; [ANCD]/[DNA] molar ratio 1:5, CT-DNA 100 μM, ligand 20 μM, sodium phosphate buffer pH 7.00, 18 h at 37° C.): 2.1 °C | ΔTm (° C.) after incubation at 37° C. for 36 h (calf thymus (CT) DNA; [ANCD]/[DNA] molar ratio 1:5, CT-DNA 100 μM, ligand 20 μM, sodium phosphate buffer pH 7.00, 36 h at 37° C.): 2.6 °C | Course of ΔTm over incubation at 0 hr, 18 hr and 36 hr (calf thymus (CT) DNA; incubation at 37° C., [ANCD]/[DNA] 1:5): gradually increased | Log10LC50 mean graph midpoint (MG_MID) (human tumour cell lines; 50% cell death, 48 h continuous drug exposure, SRB assay): −4.05 | Log10GI50 mean graph midpoint (MG_MID) (human tumour cell lines; 50% cell growth inhibition, 48 h continuous drug exposure, SRB assay): −5.62 | GI50 (human tumour cell lines; Homo sapiens, fifty-five cell lines in nine cancer cell panels): < 10 µM | antiproliferative activity (human tumour cell lines; against most of the tested cell lines): nanomolar to low micromolar concentrations | Log10TGI50 mean graph midpoint (MG_MID) (human tumour cell lines; total cell growth inhibition, 48 h continuous drug exposure, SRB assay): −5.12 | GI50 [1]: 5.5 µM | GI50 [2]: 4.57 µM | GI50 (Colon cancer cell lines): 6.76 µM | GI50 (CNS cancer cell lines): 5.89 µM | GI50 [3]: 1.78 µM | GI50 [4]: 5.75 µM | GI50 (Renal cancer cell lines): 5.62 µM | GI50 [5]: 16.6 µM | GI50 (Breast cancer cell lines): 6.76 µM | GI50 [6]: 12.4 µM | GI50 [7]: 13.6 µM | GI50 (HL-60 (TB) (leukemia)): 16.5 µM | GI50 [8]: 10.3 µM | GI50 [9]: 17.6 µM | GI50 [10]: 11.3 µM | GI50 [11]: 19.2 µM
